Measurements as given in patent publication US20060079453A1, “Hla binding peptides and their uses” (priority 2002, published 2006).
No end group written: not given here.

Columns and labels:
Test in all cases: biochemical
Format in all cases: binding
HLA-DR DRB1*0101 (DR1) = HLA-DR DRB1*0101 (DR1) (Homo sapiens, UniProt P01903+P01911, A100R/D57E/F55L/F60I/F76Y/I96L/L162R/M171V/P40L/Q125E/R42F/V115G/Y59C); details: DRB1 *0101
HLA-DR DRB1*0301 (DR3) = HLA-DR DRB1*0301 (DR3) (Homo sapiens, UniProt P01903+P01911, A100K/A102G/A103R/A169T/F55Y/I96L/K41T/L162R/M171V/P40S/Q125H/Q178H/Q39Y/R42S/S66N/T106N/T262R/W38E/Y61H)
Sequence of HLA-DR DRB1*0301 (DR3) (P01903 26-254 limits assumed, other chains not shown): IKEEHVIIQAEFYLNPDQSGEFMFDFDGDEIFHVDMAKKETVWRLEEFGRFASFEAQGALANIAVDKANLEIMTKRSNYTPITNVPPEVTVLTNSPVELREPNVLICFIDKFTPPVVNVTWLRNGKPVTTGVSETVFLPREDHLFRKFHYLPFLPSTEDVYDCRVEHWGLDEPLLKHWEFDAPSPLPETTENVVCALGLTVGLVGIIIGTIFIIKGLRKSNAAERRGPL

HLA-DR DRB1*0701 (DR7) = HLA-DR DRB1*0701 (DR7) (Homo sapiens, UniProt P01903+P01911, A100R/A102G/A103Q/D57E/D86V/E43K/F76Y/K127E/L162R/M171V/P40G/Q125H/Q99D/R33Q/R42Y/R54Q/S133A/S66F/T210M/V115G/Y107V/Y59L/Y89S); details: DRB1 *0701
HLA-DR DRB1*0802 (DR8) = HLA-DR DRB1*0802 (DR8) (Homo sapiens, UniProt P01903+P01911, A100R/A103L/A169T/F76Y/H45Y/I96F/K41T/L162R/M171V/P40S/Q125H/Q178H/Q39Y/Q99D/R218S/R42G/S66Y/V115G/W38E)
HLA-DR DRB1*0901 (DR9) = HLA-DR DRB1*0901 (DR9) (Homo sapiens, UniProt P01903+P01911, A100R/A103E/D57H/D86V/F55Y/F60I/F76Y/I96F/K127E/L162R/M171V/P40D/Q125H/Q99R/R33Q/R42F/S133A/S66N/T210M/V115G/W38K/Y107V/Y59G/Y89S); details: DRB1 *0901
HLA-DR DRB1*1101 (DR11) = HLA-DR DRB1*1101 (DR11) (Homo sapiens, UniProt P01903+P01911, A100R/A169T/A87E/I96F/K41T/L162R/M171V/P40S/Q125H/Q178H/Q39Y/Q99D/R42S/S66Y/T262R/V115G/W38E); details: DRB1 *1101
Sequence of HLA-DR DRB1*1101 (DR11) (P01903 26-254 limits assumed, other chains not shown): as above

HLA-DR DRB1*1302 (DR13) = HLA-DR DRB1*1302 (DR13) (Homo sapiens, UniProt P01903+P01911, A100E/A169T/K41T/L162R/M171V/P40S/Q125H/Q178H/Q39Y/Q99D/R42S/S66N/T262R/V115G/W38E/Y61H); details: DRBI *1302
Sequence of HLA-DR DRB1*1302 (DR13) (P01903 26-254 limits assumed, other chains not shown): as above

HLA-DR DRB1*1501 (DR15) = HLA-DR DRB1*1501 (DR15) (Homo sapiens, UniProt P01903+P01911); details: DRBI *1501
HLA-DR DRB3*0101 (DR52) = HLA-DR DRB3*0101 (DR52) (Homo sapiens, UniProt P01903+P79483)
HLA-DR DRB4*0101 (DR53) = HLA-DR DRB4*0101 (DR53) (Homo sapiens, UniProt P01903+P13762, G164S); details: DRB4 *0101
HLA-DR DRB1*0401 (DR4) = HLA-DR DRB1*0401 (DR4) (Homo sapiens, UniProt P01903+P01911, A100K/A169T/F76Y/I96L/K127E/L162R/M171V/N62H/P40V/Q125Y/R42H/S133A/S149N/S66Y/V115G/V209L/W38E); details: DRB1 *0401
HLA-DR DRB5*0101 (DR51) = HLA-DR DRB5*0101 (DR51) (Homo sapiens, UniProt P01903+Q30154); details: DRB5 *0101

Compound | IC50 (HLA-DR DRB1*0101 (DR1)) [µM] | IC50 (HLA-DR DRB1*0301 (DR3)) [µM] | IC50 (HLA-DR DRB1*0701 (DR7)) [µM] | IC50 (HLA-DR DRB1*0802 (DR8)) [µM] | IC50 (HLA-DR DRB1*0901 (DR9)) [µM] | IC50 (HLA-DR DRB1*1101 (DR11)) [µM] | IC50 (HLA-DR DRB1*1302 (DR13)) [µM] | IC50 (HLA-DR DRB1*1501 (DR15)) [µM] | IC50 (HLA-DR DRB3*0101 (DR52)) [µM] | IC50 (HLA-DR DRB4*0101 (DR53)) [µM] | IC50 (HLA-DR DRB1*0401 (DR4)) [µM] | IC50 (HLA-DR DRB5*0101 (DR51)) [µM]
CC(C)C[C@H](NC(=O)[C@H](CCC(N)=O)NC(=O)[C@H](CC(=O)O)NC(=O)[C@H](CCC(=O)O)NC(=O)[C@H](CO)NC(=O)[C@H](CC(C)C)NC(=O)[C@@H]1CCCN1C(=O)[C@@H](NC(=O)[C@@H](N)[C@@H](C)O)C(C)C)C(=O)N[C@@H](CC(C)C)C(=O)N[C@@H](Cc1ccc(O)cc1)C(=O)N[C@@H](CC(C)C)C(=O)N1CCC[C@H]1C(=O)N[C@@H](Cc1ccccc1)C(=O)N[C@@H](CCCNC(=N)N)C(=O)O | 4.01 | 0.332 | 11.3 | 42.2 | 37.4 | 26.5 | 5.3 | > 2.37 | 4.32 | 0.872 |  | 
CC(C)C[C@H](NC(=O)CNC(=O)[C@H](Cc1ccccc1)NC(=O)[C@H](CCC(=O)O)NC(=O)[C@H](CCCCN)NC(=O)[C@@H](N)Cc1c[nH]c2ccccc12)C(=O)N[C@@H](CC(=O)O)C(=O)N[C@@H](CO)C(=O)N[C@H](C(=O)N[C@@H](CCC(=O)O)C(=O)N[C@@H](CC(C)C)C(=O)N[C@@H](C)C(=O)N[C@@H](Cc1c[nH]cn1)C(=O)N[C@@H](Cc1ccc(O)cc1)C(=O)N[C@@H](CC(=O)O)C(=O)O)C(C)C | 1.14 | 0.085 |  | 20 | 7.05 | 4.93 | 8.41 | 22.8 | 0.829 | 5.92 | 0.096 | 89.4
EVFFQRLGIASGRAR | 0.028 | > 75 | 5.31 | 0.0063 | 2.98 | 0.031 | 17.5 | 4.56 | > 15 | 0.051 |  | 0.0079
GVILYSDPADYFAPG | 1.57 | 0.017 | 7.85 | 106 | 2.47 | > 18.9 | 0.039 | 0.965 | 0.0088 | 0.064 | 7.51 | 
NGVLQGITSWGSEPC | 0.945 | 24.9 | 0.485 | 5.87 | 0.819 | 9.72 | 0.775 | 0.258 | 8.04 | 4.49 | 0.56 | 
NSRLLQERGVAYINA | 0.614 | 0.318 | 8 | 3.22 | 2.62 | 12.8 | 0.327 | 1.23 | 3.37 | 0.699 |  | 3.47
YDPLYCESVHNFTLP | 1.6 | 16.6 | 0.838 | 30.9 | 0.643 | 30.2 | > 35 | 2.14 | > 8.83 | 6.9 |  | 28.8
